Patent US20240173440A1, “HIGH PURITY COPPER RADIOPHARMACEUTICAL COMPOSITIONS AND DIAGNOSTIC AND THERAPEUTIC USES THEREOF” (Nuclidium AG, priority 2022, published 2024)

What was measured:
HEK-SST2 xenografts = assay: PET/CT imaging in HEK-SST2 xenografted mice; format: in vivo; settings: 0-60 min and 240 min
Experimental: (§1) Tumor xenografted mice were injected intravenously into the tail vein with the tested radiotracer. […] Mice were anesthetized with 1.5% isoflurane and dynamic PET scans were acquired during 1 hour upon injection of the radiotracer. The mice were euthanized by CO2 at 4 hours p.i., the bladder was mechanically emptied, and static PET scans were acquired for 30 min. PET images were acquired using the R-CUBE PET scanner system (MOLECUBES, Gent, Belgium) and they were decay corrected and reconstructed with the VivoQuant software version 4.0. The CT was imaged supine, headfirst, using the NanoSPECT/CT™ scanner (Bioscan Inc.). Topograms and helical CT scans of the whole mouse were first acquired using the following parameters: X-ray tube current: 177 μA, X-ray tube voltage 45 kVp, 90 seconds and 180 frames per rotation, pitch 1. CT images were reconstructed using CTReco (version r1.146), with a standard filtered back projection algorithm (exact cone beam) and post-filtered (RamLak, 100% frequency cut-off), resulting in a pixel size of 0.2 mm. Co-registered PET/CT images were visualized using maximum intensity projection (MIP) with InVivoScope (version 1.43, Bioscan Inc.). The results are presented in the Examples that follow.

in vivo = settings: iv, 20 umol, total radioactivity
Experimental: The tumors were allowed to grow for 1-3 weeks before commencement of the experiments.
The mice were randomly distributed in groups and euthanized at 1 and at 4 hours post-injection. The organs of interest were collected, rinsed, blotted, weighed and counted in a gamma counter. The results are expressed as percentage of injected activity per gram (% IA/g), representing the mean±standard deviation of n=4-8 mice per group and they were obtained by extrapolation from counts of an aliquot taken from the injected solution as standard.
The mice were randomly distributed in groups, injected with the radiotracer under investigation and euthanized at 1 and at 4 hours post-injection of the radiotracers under investigation. The organs of interest were collected, rinsed, blotted, weighed and counted in a gamma counter. The results are expressed as percentage of injected activity per gram (% IA/g), representing the mean±standard deviation of all mice per group and they were obtained by extrapolation from counts of an aliquot taken from the injected solution as standard.
The mice were randomly distributed in groups and euthanized at 4 hours post-injection. The organs of interest were collected, rinsed, blotted, weighed, and their respective radioactivity was counted in a gamma counter.

[1] = Lipophilicity, log D by shake-flask method (1-octanol/PBS pH 7.4); format: physicochemical; settings: shake-flask, Table 17, mean ± SD
Experimental: The radiotracer (1 μM) was added to a 50:50 pre-saturated mixture of 1-octanol and phosphate buffered saline (PBSpH 7.4). The solution was vortexed for 30 min and then centrifuged at 3,000 rpm to achieve a phase separation. Aliquots from each phase were collected and measured in a gamma-counter. The distribution coefficient was calculated as the average of the logarithmic values of the ratio between the radioactivity in the organic and the PBS phase.
Table 17. Lipophilicity expressed as the log distribution coefficient D (log D(Octanol/PBS pH7.4)) of ^61Cu-radiotracers versus ^68Ga-radiotracers (reference radiotracers).
In a pre-lubricated Eppendorf tube, a pre-saturated mixture of 500 μL of 1-octanol and 500 μL of PBS pH 7.4 (phosphate-buffered saline) were added. An aliquot of […] in 10 μL of the radioligand was added to this mixture, shaken for 30 min, and then centrifuged at 3000 rcf for 10 min to achieve phase separation. Aliquots of 100 μL were removed from the 1-octanol and from the PBS phases, and the activity was measured in a […]. The partition coefficient was calculated as the average log ratio value of the radioactivity in the organic fraction and PBS fraction.

LNCaP cells = assay: In vitro cellular uptake (cell surface and internalized fractions) in LNCaP cells; format: cell-based; settings: for Cell surface fraction / Internalized fraction: specific uptake
Experimental: The cellular uptake was studied in vitro using intact cells seeded in 6-well plates overnight. On the day of the experiment, the cells were washed and incubated with each of the exemplified [^61Cu]Cu-radiotracer at different time points, either alone or in the presence of a blocking agent to distinguish between specific and non-specific uptake. At each investigated time point, the medium containing the unbound (free) radiotracer was removed, followed by two washing steps with ice-cold phosphate-buffered saline. The cells were then treated 2×5 min with ice-cold glycine solution (0.05 M, pH 2.8) to detach the cell surface-bound radiotracer (acid released). Afterwards, the cells containing the internalized radiotracer were detached with 1 M NaOH at 37° C. and collected for measurement. The amount of specific cell surface-bound and internalized radiotracer is expressed as percentage of the total applied activity, after subtracting the non-specific values.
2-(phosphonomethyl)-pentanedioic acid (2-PMPA, 10 μM) was used to determine non-specific binding (FIG. 14).
Cellular uptake and distribution between cell surface (cell membrane bound) and internalized fractions of ^61Cu-labeled PSMA-I&T constructs versus their ^68Ga counterparts (Table 19). The values are expressed as % of the applied activity and refer to the specific uptake calculated after subtracting the non-specific values (measured in the presence of 10 μM 2-PMPA) from the total values (specific=total−non specific).

LNCaP xenografts [2] = assay: Quantitative biodistribution in LNCaP xenografted mice; format: in vivo; settings: LNCaP xenografts
LNCaP xenografts [3] = assay: PET/CT imaging in LNCaP xenografted mice; format: in vivo; settings: LNCaP-xenografted nude mice
Experimental: as §1

PSMA = PSMA (Homo sapiens (Human), UniProt Q04609); assay: Specificity study: PET/CT in LNCaP xenografts after blocking with 2-PMPA, and free [61Cu]CuCl2; format: in vivo, mice; settings: PET/CT 1 hour p.i.
Sequence of PSMA (Q04609 whole entry): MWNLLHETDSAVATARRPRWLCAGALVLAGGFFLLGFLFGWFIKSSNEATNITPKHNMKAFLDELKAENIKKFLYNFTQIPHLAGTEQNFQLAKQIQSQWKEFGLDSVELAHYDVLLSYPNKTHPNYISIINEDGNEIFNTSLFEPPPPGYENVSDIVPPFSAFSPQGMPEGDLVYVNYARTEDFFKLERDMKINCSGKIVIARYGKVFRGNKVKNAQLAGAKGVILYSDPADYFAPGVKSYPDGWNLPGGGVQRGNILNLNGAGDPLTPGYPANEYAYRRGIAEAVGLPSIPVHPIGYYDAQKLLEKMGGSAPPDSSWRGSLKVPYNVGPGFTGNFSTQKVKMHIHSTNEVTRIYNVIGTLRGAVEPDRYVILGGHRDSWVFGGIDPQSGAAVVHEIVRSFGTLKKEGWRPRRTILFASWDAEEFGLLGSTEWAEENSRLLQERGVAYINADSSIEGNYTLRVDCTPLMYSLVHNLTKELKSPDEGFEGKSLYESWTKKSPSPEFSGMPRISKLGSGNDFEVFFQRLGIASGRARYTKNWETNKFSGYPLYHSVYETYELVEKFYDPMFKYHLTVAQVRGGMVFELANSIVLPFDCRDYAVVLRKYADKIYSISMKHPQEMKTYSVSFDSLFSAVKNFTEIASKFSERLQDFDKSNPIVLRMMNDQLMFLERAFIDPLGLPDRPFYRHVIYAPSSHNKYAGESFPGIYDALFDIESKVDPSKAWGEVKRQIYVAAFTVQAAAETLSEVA
Experimental: The specificity of [^61Cu]Cu-NODAGA-PSMA-I&T and [^61Cu]Cu-DOTAGA-PSMA-I&T was assessed in LNCaP xenografted mice, firstly injected with 1.3 μmol (300 μg) of 2-Phosphonomethyl pentanedioic acid (2-PMPA) as the blocking agent, followed by the injection of the radiotracer e.g. [^61Cu]Cu-DOTAGA-PSMA-I&T (100 μL/[…]/4-8 MBq) or [^61Cu]Cu-NODAGA-PSMA-I&T (100 μL/[…]/4-8 MBq). One-hour post injection PET/CT images were acquired as described in Example 8. In addition, PET/CT image of xenografts after injection of [^61Cu]CuCl2 (100 μL/7 MBq) was acquired in order to assess the total body distribution of free (uncomplexed)^61Cu. The results are shown in FIG. 10, panels A and B. L=liver; K=kidneys; T=tumor; Bl=bladder; I=intestine.

Compound: C[C@@H](O)[C@@H]1NC(=O)[C@H](CCCCN)NC(=O)[C@@H](Cc2ccc(NC(N)=O)cc2)NC(=O)[C@H](Cc2ccc(O)cc2)NC(=O)[C@H](NC(=O)[C@H](Cc2ccc(Cl)cc2)NC(=O)CC[C@H](C(=O)O)N2CCN(CC(=O)O)CCN(CC(=O)O)CC2)CSSC[C@@H](C(=O)N[C@H](Cc2ccc(O)cc2)C(N)=O)NC1=O [[^61Cu]Cu-(R)-NODAGA-LM3, metal not drawn]
- distribution pattern on PET/CT (HEK-SST2 xenografts): same distribution pattern
- tissue uptake at 4 h (in vivo; athymic nude Foxn1+Foxn1+, mouse, Biodistribution Adrenal): 0.61 ± 0.18 %ID/g
- tissue uptake at 4 h (in vivo; athymic nude Foxn1+Foxn1+, mouse, Biodistribution Blood): 0.1 ± 0.01 %ID/g
- tissue uptake at 4 h (in vivo; athymic nude Foxn1+Foxn1+, mouse, Biodistribution Heart): 0.17 ± 0.02 %ID/g
- tissue uptake at 4 h (in vivo; athymic nude Foxn1+Foxn1+, mouse, Biodistribution Intestine): 0.58 ± 0.13 %ID/g
- tissue uptake at 4 h (in vivo; athymic nude Foxn1+Foxn1+, mouse, Biodistribution Liver): 0.73 ± 0.06 %ID/g
- tissue uptake at 4 h (in vivo; athymic nude Foxn1+Foxn1+, mouse, Biodistribution Lung): 0.42 ± 0.05 %ID/g
- tissue uptake at 4 h (in vivo; athymic nude Foxn1+Foxn1+, mouse, Biodistribution Pancreas): 0.44 ± 0.24 %ID/g
- tissue uptake at 4 h (in vivo; athymic nude Foxn1+Foxn1+, mouse, Biodistribution Spleen): 0.17 ± 0.02 %ID/g
- tissue uptake at 4 h (in vivo; athymic nude Foxn1+Foxn1+, mouse, Biodistribution Stomach): 0.78 ± 0.14 %ID/g
- tissue uptake at 4 h (in vivo; athymic nude Foxn1, mouse, Biodistribution Bone): 0.42 ± 0.12 %ID/g
- tissue uptake at 4 h (in vivo; athymic nude Foxn1, mouse, Biodistribution Kidneys): 3.87 ± 0.51 %ID/g
- tissue uptake at 4 h (in vivo; athymic nude Foxn1, mouse, Biodistribution Muscle): 0.1 ± 0.02 %ID/g
- tissue uptake at 4 h (in vivo; athymic nude Foxn1, mouse, Biodistribution Pituitary): 3.64 ± 0.31 %ID/g
- tissue uptake at 4 h (in vivo; athymic nude Foxn1, mouse, Biodistribution SSTR2-tumor): 19 ± 2.11 %ID/g

Compound: O=C([O-])CN1CCN(CC(=O)[O-])CCN(C(CCC(=O)N[C@H](Cc2ccc(O)c(I)c2)C(=O)N[C@H](Cc2ccccc2)C(=O)N[C@H](CCCCNC(=O)CCCCCCC(=O)NCCCC[C@H](NC(=O)N[C@@H](CCC(=O)O)C(=O)O)C(=O)O)C(=O)O)C(=O)O)CCN(CC(=O)O)CC1.[61Cu+2] (stereo partly shown) [[^61Cu]Cu-DOTAGA-PSMA-I&T]
- log D(O/PBS pH 7.4) [1]: −2.69±0.44
- Cell surface fraction (LNCaP cells; 5 min): 3.7 ± 0.5 % of the applied activity
- Internalized fraction (LNCaP cells; 5 min): 0.7 ± 0.1 % of the applied activity
- Cell surface fraction (LNCaP cells; 15 min): 8.1 ± 0.7 % of the applied activity
- Internalized fraction (LNCaP cells; 15 min): 2.8 ± 0.2 % of the applied activity
- Cell surface fraction (LNCaP cells; 30 min): 11.6 ± 1.0 % of the applied activity
- Internalized fraction (LNCaP cells; 30 min): 6.2 ± 0.5 % of the applied activity
- Cell surface fraction (LNCaP cells; 60 min): 13.4 ± 0.8 % of the applied activity
- Internalized fraction (LNCaP cells; 60 min): 13.3 ± 0.5 % of the applied activity
- Cell surface fraction (LNCaP cells; 120 min): 14.7 ± 1.0 % of the applied activity
- Internalized fraction (LNCaP cells; 120 min): 21.3 ± 0.9 % of the applied activity
- PSMA-mediated cellular uptake (LNCaP cells; after 2h at 37° C.): approx. 35%
- part of the cellular uptake being internalized (LNCaP cells; after 2h at 37° C.): 50-60%
- Biodistribution Adrenal (LNCaP xenografts [2]; 1 hour p.i.): 9.35 ± 1.50 % IA/g
- Biodistribution Blood (LNCaP xenografts [2]; 1 hour p.i.): 2.06 ± 0.24 % IA/g
- Biodistribution Bone (LNCaP xenografts [2]; 1 hour p.i.): 2.31 ± 0.36 % IA/g
- Biodistribution Heart (LNCaP xenografts [2]; 1 hour p.i.): 3.73 ± 0.32 % IA/g
- Biodistribution Intestine (LNCaP xenografts [2]; 1 hour p.i.): 8.95 ± 0.62 % IA/g
- Biodistribution Kidneys (LNCaP xenografts [2]; 1 hour p.i.): 57 ± 6 % IA/g
- Biodistribution LNCaP-tumor (LNCaP xenografts [2]; 1 hour p.i.): 6.06 ± 0.25 % IA/g
- Biodistribution Liver (LNCaP xenografts [2]; 1 hour p.i.): 19.3 ± 3.3 % IA/g
- Biodistribution Lung (LNCaP xenografts [2]; 1 hour p.i.): 6.35 ± 0.35 % IA/g
- Biodistribution Muscle (LNCaP xenografts [2]; 1 hour p.i.): 1.00 ± 0.05 % IA/g
- Biodistribution Pancreas (LNCaP xenografts [2]; 1 hour p.i.): 2.82 ± 0.67 % IA/g
- Biodistribution Salivary glands (LNCaP xenografts [2]; 1 hour p.i.): 5.60 ± 1.39 % IA/g
- Biodistribution Spleen (LNCaP xenografts [2]; 1 hour p.i.): 4.64 ± 1.35 % IA/g
- Biodistribution Stomach (LNCaP xenografts [2]; 1 hour p.i.): 7.77 ± 0.62 % IA/g
- Ratio Tumor/Blood (LNCaP xenografts [2]; 1 hour p.i.): 2.97 ± 0.23
- Ratio Tumor/Kidney (LNCaP xenografts [2]; 1 hour p.i.): 0.11 ± 0.01
- Ratio Tumor/Liver (LNCaP xenografts [2]; 1 hour p.i.): 0.32 ± 0.05
- Ratio Tumor/Muscles (LNCaP xenografts [2]; 1 hour p.i.): 6.08 ± 0.22
- Biodistribution Adrenal (LNCaP xenografts [2]; 4 hours p.i.): 6.46 ± 2.38 % IA/g
- Biodistribution Blood (LNCaP xenografts [2]; 4 hours p.i.): 1.12 ± 0.24 % IA/g
- Biodistribution Bone (LNCaP xenografts [2]; 4 hours p.i.): 1.69 ± 0.25 % IA/g
- Biodistribution Heart (LNCaP xenografts [2]; 4 hours p.i.): 2.08 ± 0.33 % IA/g
- Biodistribution Intestine (LNCaP xenografts [2]; 4 hours p.i.): 7.74 ± 1.76 % IA/g
- Biodistribution Kidneys (LNCaP xenografts [2]; 4 hours p.i.): 22.1 ± 2.2 % IA/g
- Biodistribution LNCaP-tumor (LNCaP xenografts [2]; 4 hours p.i.): 4.88 ± 0.63 % IA/g
- Biodistribution Liver (LNCaP xenografts [2]; 4 hours p.i.): 13.9 ± 2.2 % IA/g
- Biodistribution Lung (LNCaP xenografts [2]; 4 hours p.i.): 4.67 ± 0.76 % IA/g
- Biodistribution Muscle (LNCaP xenografts [2]; 4 hours p.i.): 0.48 ± 0.08 % IA/g
- Biodistribution Pancreas (LNCaP xenografts [2]; 4 hours p.i.): 1.71 ± 0.23 % IA/g
- Biodistribution Salivary glands (LNCaP xenografts [2]; 4 hours p.i.): 2.31 ± 0.19 % IA/g
- Biodistribution Spleen (LNCaP xenografts [2]; 4 hours p.i.): 2.95 ± 0.73 % IA/g
- Biodistribution Stomach (LNCaP xenografts [2]; 4 hours p.i.): 7.10 ± 0.97 % IA/g
- Ratio Tumor/Blood (LNCaP xenografts [2]; 4 hours p.i.): 4.56 ± 1.49
- Ratio Tumor/Kidney (LNCaP xenografts [2]; 4 hours p.i.): 0.22 ± 0.04
- Ratio Tumor/Liver (LNCaP xenografts [2]; 4 hours p.i.): 0.35 ± 0.05
- Ratio Tumor/Muscles (LNCaP xenografts [2]; 4 hours p.i.): 10.5 ± 2.8
- accumulation in tumor and target-positive tissues (LNCaP xenografts [2]): high accumulation in PSMA-positive (LNCaP) tumor and PSMA-positive tissues
- distribution on PET/CT images (LNCaP xenografts [3]): lower tumor, but also lower kidney uptake
- uptake in PSMA-positive tumors and kidneys in xenografts pre-injected with 2-PMPA (PSMA): significantly lower uptake
